pIC50: −log10 of the molar value. The source made the active and inactive calls. The rule behind the calls is not given here.

For orientation: pIC50 means the IC50 on a negative log10 scale, so that one unit is a factor of ten. Read a low pIC50 as a high IC50. As usually defined, the inhibition is how much of the control response was suppressed.

Data set [1] in a line: Inhibition of TNF-alpha-activated NFkappaB (unknown origin) transfected in HEK293 cells after 6 hrs by luciferase reporter gene assay. It is filed as cell-based. The conditions noted are these: Homo sapiens, HEK293, 6 h. Background: Reporter assays use an easily measured gene product as a stand-in for the process of interest.
Data set [2] in a line: Toxicity in HEK293 cells assessed as decrease in cell survival at 50 uM. It is filed as cell-based. The conditions noted are these: human, hek293, 50 µM.
Another data set has as its system HEK293. Kind of data set: Inhibition of TNF-alpha-activated NFkappaB (unknown origin) expressed in HEK293 cells at 50 uM after 6 hrs by luciferase reporter gene assay relative to control. The format is cell-based. The conditions noted are these: Homo sapiens.
Data set [3] is described as follows: Induction of quinone reductase-1 in mouse Hepa-1c1c7 cells assessed as reduction of 3-(4,5-dimethylthiazol-2-yl)-2,5-diphenyltetrazolium bromide at 50 uM after 48 hrs by crystal violet staining-based assay relative to control.

With `Cc1ccc(S(=O)(=O)N[C@@H](Cc2ccccc2)C(=O)CCl)cc1` [TPCK], the pIC50 in data set [1] was 5.42. Consider `O=C1O[C@@H]2[C@@H](O)CO[C@]2(O)[C@@]1(O)C/C=C/c1ccc(O)c(O)c1`, for which, in data set [2], the Activity entry is “Non-Toxic”. Moreover, in the data set on HEK293, the inhibition was 70%.

Turning to `COC(=O)C1=CO[C@@H](O[C@@H]2O[C@H](CO)[C@@H](O)[C@H](O)[C@H]2O)[C@@H]2C(CO)=C[C@@H](O)[C@H]12`, the fold change (FC) in data set [3] stood at 2.5. As for `C[C@@H]1O[C@@H](OC[C@H]2O[C@@H](Oc3c(-c4ccc(O)cc4)oc4cc(O)cc(O)c4c3=O)[C@H](O)[C@@H](O)[C@@H]2O)[C@H](O)[C@H](O)[C@H]1O` [NICOTIFLOROSIDE], the Activity result in data set [2] is listed as “Non-Toxic”. The compound further had an inhibition in the data set on HEK293 of 62%. In the case of `COc1cc2oc(=O)ccc2cc1O[C@@H]1O[C@H](CO)[C@@H](O)[C@H](O)[C@H]1O`, the result in data set [3] was Active.

For `CCCCO[C@H]1C=C(CO)[C@H]2[C@H](O[C@@H]3O[C@H](CO)[C@@H](O)[C@H](O)[C@H]3O)OC=C(C(=O)O)[C@H]21`, the fold change (FC) in data set [3] came to 2.3.
